Values after ≈ are worked out from the molar mass of the structure shown.
Tests used:
Assay type in all cases: cell-based
[1] = test system: P. aeruginosa ΔmexAB-OprM (an efflux pump knockout); assay: broth microdilution MIC assay, P. aeruginosa ΔmexAB-OprM; conditions: Pseudomonas aeruginosa, read-out: MIC, P. aeruginosa ΔmexAB-OprM
Protocol: (§1) To determine the ability of test compounds to inhibit the growth of bacterial strains, classic cell-based broth microdilution MIC assays were employed. MIC assays are performed according to CLSI methods except where otherwise noted (CLSI, 2011 and CLSI, 2009). The reference strains S. aureus ATCC 29213 (methicillin sensitive), S. aureus ATCC 33591 (methicillin-resistant), E. coli ATCC 25922 (wild-type/QC strain), P. aeruginosa ATCC 27853 (wild-type/QC strain), and the clinical isolate P. aeruginosa PA 8 were used to determine the ability of the exemplary carbapenem compounds to inhibit bacterial growth. An expanded panel of methicillin resistance S. aureus (MRSA) and Pseudomonas was also used to determine the ability of exemplary carbapenem compounds to inhibit bacterial growth across a broader representation of those species. To determine activity in MRSA and in addition to S. aureus ATCC 33591, S. aureus USA 300 and USA 600, some of the most common clones found to cause human infection, were also used. To further gauge the impact on the carbapenem compounds due to various resistance mechanisms in Pseudomonas, the following strains were included: P. aeruginosa 35151 (hyper-permeable strain), P. aeruginosa ΔmexAB-OprM (an efflux pump knockout), and P. aeruginosa Paβ-173 (a clinical isolate of reduced carbapenem susceptibility). Briefly, cryo-preserved bacterial cultures of clinical strains are streaked for isolation on appropriate agar medium, in this case Mueller Hinton II agar. Following incubation to allow formation of colonies, these plates are sealed with parafilm and stored refrigerated for up to two weeks. For preparation of assay inocula and to ensure low variability, at least 5 colonies are picked from the agar plates with an inoculating loop and aseptically transferred to a culture tube containing 3 mL of Mueller-Hinton Broth (supplemented with divalent cations to required levels based on Manufacturers' specification). The broth culture is grown for 3-5 hours at 37° C. with shaking at 200 rpm. Meanwhile, 2-fold serial dilutions of test compounds are conducted in a 96 well plate with a final volume of 75 μL per well at 2-fold the final desired concentration. After the dilution plates are set up the growing cultures are then diluted in a cuvette containing MH II broth and the optical density is measured at 600 nm. Inocula are diluted such that 75 μL of this culture in Mueller-Hinton Broth results in a starting bacterial concentration of 5×10^5 CFU/mL when added to the dilution plates. The plates are incubated 16-20 hours at 37° C. The MIC is read visually as the lowest concentration well with no bacterial growth.

P. aeruginosa Paeβ-17 = assay: broth microdilution MIC assay, P. aeruginosa Paeβ-17; conditions: Pseudomonas aeruginosa, read-out: MIC, P. aeruginosa Paeβ-17
Protocol: as §1

[2] = test system: P. aeruginosa 35151 (hyper-permeable strain); assay: broth microdilution MIC assay, P. aeruginosa 35151; conditions: Pseudomonas aeruginosa, read-out: MIC, P. aeruginosa 35151
Protocol: as §1

[3] = test system: P. aeruginosa ATCC 27853 (wild-type/QC strain); assay: broth microdilution MIC assay, P. aeruginosa 27853; conditions: Pseudomonas aeruginosa, ATCC27853; read-out: MIC, P. aeruginosa 27853
Protocol: as §1

[4] = test system: E. coli ATCC 25922 (wild-type/QC strain); assay: broth microdilution MIC assay, E. coli 25922; conditions: Escherichia coli, ATCC25922; read-out: MIC, E. coli 25922
Protocol: as §1

[5] = test system: S. aureus ATCC 33591 (methicillin-resistant); assay: broth microdilution MIC assay, S. aureus 33591; conditions: Staphylococcus aureus, ATCC33591; S. aureus 33591, methicillin-resistant; read-out: MIC, S. aureus 33591
Protocol: as §1

S. aureus USA 300 = assay: broth microdilution MIC assay, S. aureus USA300; conditions: Staphylococcus aureus; S. aureus USA300 (MRSA); read-out: MIC, S. aureus USA300
Protocol: as §1

S. aureus USA 600 = assay: broth microdilution MIC assay, S. aureus USA600; conditions: Staphylococcus aureus; S. aureus USA600 (MRSA); read-out: MIC, S. aureus USA600
Protocol: as §1

C[C@@H](O)[C@H]1C(=O)N2C(C(=O)O)=C(SC3CN([C@@H]4CCC[C@H](N)C4)C3)[C@H](C)[C@H]12 [Example 14, (4R,5S,6S)-3-((1-((1R,3S)-3-aminocyclohexyl)azetidin-3-yl)thio)-6-((R)-1-hydroxyethyl)-4-methyl-7-oxo-1-azabicyclo[3.2.0]hept-2-ene-2-carboxylic acid]
MIC [1]: 1 to 4 µg/mL (≈ 2.53 to 10.1 µM) | MIC (P. aeruginosa Paeβ-17): 8 to 32 µg/mL (≈ 20.2 to 80.9 µM) | MIC [2]: < 1 µg/mL | MIC [3]: 1 to 4 µg/mL (≈ 2.53 to 10.1 µM) | MIC [4]: < 1 µg/mL | MIC [5]: 1 to 4 µg/mL (≈ 2.53 to 10.1 µM) | MIC (S. aureus USA 300): 1 to 4 µg/mL (≈ 2.53 to 10.1 µM) | MIC (S. aureus USA 600): 1 to 4 µg/mL (≈ 2.53 to 10.1 µM)

C[C@@H](O)[C@H]1C(=O)N2C(C(=O)O)=C(SC3CN([C@H]4CCC[C@@H](N)C4)C3)[C@H](C)[C@H]12 [Example 15, (4R,5S,6S)-3-((1-((1S,3R)-3-aminocyclohexyl)azetidin-3-yl)thio)-6-((R)-1-hydroxyethyl)-4-methyl-7-oxo-1-azabicyclo[3.2.0]hept-2-ene-2-carboxylic acid]
MIC [1]: 1 to 4 µg/mL (≈ 2.53 to 10.1 µM) | MIC (P. aeruginosa Paeβ-17): 8 to 32 µg/mL (≈ 20.2 to 80.9 µM) | MIC [2]: < 1 µg/mL | MIC [3]: 1 to 4 µg/mL (≈ 2.53 to 10.1 µM) | MIC [4]: < 1 µg/mL | MIC [5]: 8 to 32 µg/mL (≈ 20.2 to 80.9 µM) | MIC (S. aureus USA 300): 1 to 4 µg/mL (≈ 2.53 to 10.1 µM) | MIC (S. aureus USA 600): 1 to 4 µg/mL (≈ 2.53 to 10.1 µM)

C[C@@H](O)[C@H]1C(=O)N2C(C(=O)O)=C(SC3CN([C@@H]4CCC[C@@H](N)C4)C3)[C@H](C)[C@H]12 [Example 16, (4R,5S,6S)-3-((1-((1R,3R)-3-aminocyclohexyl)azetidin-3-yl)thio)-6-((R)-1-hydroxyethyl)-4-methyl-7-oxo-1-azabicyclo[3.2.0]hept-2-ene-2-carboxylic acid]
MIC [1]: 1 to 4 µg/mL (≈ 2.53 to 10.1 µM) | MIC (P. aeruginosa Paeβ-17): 8 to 32 µg/mL (≈ 20.2 to 80.9 µM) | MIC [2]: < 1 µg/mL | MIC [3]: 8 to 32 µg/mL (≈ 20.2 to 80.9 µM) | MIC [4]: < 1 µg/mL | MIC [5]: 8 to 32 µg/mL (≈ 20.2 to 80.9 µM) | MIC (S. aureus USA 300): 1 to 4 µg/mL (≈ 2.53 to 10.1 µM) | MIC (S. aureus USA 600): 1 to 4 µg/mL (≈ 2.53 to 10.1 µM)

C[C@@H](O)[C@H]1C(=O)N2C(C(=O)O)=C(SC3CN(Cc4cnc(N)nc4)C3)[C@H](C)[C@H]12 [Example 22, (4R,5S,6S)-3-((1-((2-aminopyrimidin-5-yl)methyl)azetidin-3-yl)thio)-6-((R)-1-hydroxyethyl)-4-methyl-7-oxo-1-azabicyclo[3.2.0]hept-2-ene-2-carboxylic acid]
MIC [1]: 1 to 4 µg/mL (≈ 2.47 to 9.86 µM) | MIC (P. aeruginosa Paeβ-17): > 32 µg/mL | MIC [2]: < 1 µg/mL | MIC [3]: 8 to 32 µg/mL (≈ 19.7 to 78.9 µM) | MIC [4]: < 1 µg/mL | MIC [5]: 8 to 32 µg/mL (≈ 19.7 to 78.9 µM) | MIC (S. aureus USA 300): 1 to 4 µg/mL (≈ 2.47 to 9.86 µM) | MIC (S. aureus USA 600): 1 to 4 µg/mL (≈ 2.47 to 9.86 µM)

C[C@@H](O)[C@H]1C(=O)N2C(C(=O)O)=C(SC3CN(Cc4ccc(N)nc4)C3)[C@H](C)[C@H]12 [Example 23, (4R,5S,6S)-3-((1-((6-aminopyridin-3-yl)methyl)azetidin-3-yl)thio)-6-((R)-1-hydroxyethyl)-4-methyl-7-oxo-1-azabicyclo[3.2.0]hept-2-ene-2-carboxylic acid]
MIC [1]: 1 to 4 µg/mL (≈ 2.47 to 9.89 µM) | MIC (P. aeruginosa Paeβ-17): > 32 µg/mL | MIC [2]: < 1 µg/mL | MIC [3]: 8 to 32 µg/mL (≈ 19.8 to 79.1 µM) | MIC [4]: < 1 µg/mL | MIC [5]: 8 to 32 µg/mL (≈ 19.8 to 79.1 µM) | MIC (S. aureus USA 300): 1 to 4 µg/mL (≈ 2.47 to 9.89 µM) | MIC (S. aureus USA 600): 1 to 4 µg/mL (≈ 2.47 to 9.89 µM)

C[C@@H](O)[C@H]1C(=O)N2C(C(=O)O)=C(S[C@@H]3CCN(Cc4cnc(N)nc4)C3)[C@H](C)[C@H]12 [Example 24, (4R,5S,6S)-3-(((R)-1-((2-aminopyrimidin-5-yl)methyl)pyrrolidin-3-yl)thio)-6-((R)-1-hydroxyethyl)-4-methyl-7-oxo-1-azabicyclo[3.2.0]hept-2-ene-2-carboxylic acid]
MIC [1]: 1 to 4 µg/mL (≈ 2.38 to 9.54 µM) | MIC (P. aeruginosa Paeβ-17): > 32 µg/mL | MIC [2]: < 1 µg/mL | MIC [3]: 8 to 32 µg/mL (≈ 19.1 to 76.3 µM) | MIC [4]: < 1 µg/mL | MIC [5]: 8 to 32 µg/mL (≈ 19.1 to 76.3 µM) | MIC (S. aureus USA 300): 1 to 4 µg/mL (≈ 2.38 to 9.54 µM) | MIC (S. aureus USA 600): 1 to 4 µg/mL (≈ 2.38 to 9.54 µM)
